Marks after values point to notes of the source that are not given here.
What was measured:
EGFR L858R/T790M/C797S = EGFR L858R/T790M/C797S (Homo sapiens (Human), UniProt P00533, C797S/L858R/T790M); test: In vitro enzymatic TR-FRET (HTRF KinEASE-TK) kinase assay, EGFR L858R/T790M/C797S; assay type: biochemical; details: kinase activity
Experimental: (I) In Vitro Enzymatic Experiment for EGFR WT and EGFR L858R/T790M/C797S
In the assay, the inhibition effect of the compound on the kinase activity of EGFR WT (wild type EGFR) and EGFR L858R/T790M/C797S was tested by adopting a time-resolved fluorescence resonance energy transfer (TR-FRET) method, and half maximal inhibitory concentration IC50 of the compound on the kinase activity of EGFR was obtained.
EGFR recombinase and EGFR L858R/T790M/C797S recombinase, purchased from Signalchem.
HTRF KinEASE-TK kit, purchased from Cisbio.
DTT, MnCl2, and MgCl2, purchased from Sigma.
ATP, purchased from Promega.
Brigatinib, purchased from Selleck.
1) 1× working solution was prepared: 5 mM MgCl2; 1 mM DTT; 1 mM MnCl2 and 1× kinase buffer (in kit).
2) […] of gradiently-diluted compound was transferred to a 384-well plate using Echo 550 (Labcyte).
3) 5 μL of 2× EGFR WT or EGFR L858R/T790M/C797S recombinase solution was added to the 384-well plate, and the plate was incubated at room temperature for 10 min.
4) 5 μL of 2× TK-substrate-biotin substrate solution (containing ATP) was added to the 384-well plate, and the plate was incubated at room temperature for 40 min.
5) 5 μL of assay solution containing Sa-XL 665 HTRF and 5 μL of TK-antibody-Cryptatewas were added to the plate, and the plate was incubated at room temperature for 1 h.
6) The fluorescence signal values at 615 nm and 665 nm were measured for each well using an Envision microplate reader (PerkinElmer).
7) The ratio of fluorescence signal values at 665 nm and 615 nm was calculated for each well.
8) Data analysis was performed using GraphPad Prism software to give the IC50 for compounds.

[1] = tested on: PC9 (Del19/T790M/C797S) cells; test: In vivo efficacy study, PC9 (Del19/T790M/C797S) xenograft; set-up: species or system BALB/c-nu mice; details: 21 consecutive days; for Tumor volume (mm^3): mean ± SEM; for Tolerability in mice (in words): po
Experimental: (III) In Vivo Efficacy Study Experiment
The anti-tumor activity and toxic and side effects of compound 53 and compound 27 administered orally for 21 consecutive days on PC9 (Del19/T790M/C797S) were evaluated.
SPF-grade and female BALB/c-nu mice, purchased from Beijing Vital River Laboratory Animal Technology Co., Ltd.
PC9 (Del19/T790M/C797S) cells, self-constructed by Qilu Pharmaceutical Co., Ltd.
PC9 (Del19/T790M/C797S) cells were cultured in RPMI 1640 medium containing 10% FBS at 37° C. in a 5% carbon dioxide incubator; and the cells in exponential growth phase were collected for inoculation.
Under sterile conditions, a cell suspension of in vitro cultured PC9 (Del19/T790M/C797S) was taken, centrifuged to adjust the cell concentration to 3×10^7 cells/mL, and inoculated in mice at the right side armpit (0.1 mL/mouse), and the day of inoculation was defined as day 0.
3.3 Tumor Grouping, Administration and Measurement
a. When the mean tumor volume was about 150 mm^3, 35 mice with moderate tumor volume were selected for enrollment and randomized into 5 groups according to tumor volume: G1: vehicle control group, G2: compound 53 (15 mg/kg), G3: compound 53 (60 mg/kg), G4: compound 27 (15 mg/kg) and G5: compound 27 (35 mg/kg), 7 mice/group.
b. The animals were grouped and then started to be administrated, and the volume for oral administration (po) was 10 mL/kg; the weighing was performed once daily with consecutively 21-day administration; the tumor diameters were measured 2 times a week.
c. Tumor volume (TV): tumor volumes were measured 2 times a week to observe tumor mass volume changes and growth rate. Tumor volume V=1/2×a×b^2, where a and b represent tumor long diameter and short diameter, respectively. The growth inhibition effect of the compounds on tumor tissues is evaluated by using a tumor growth inhibition TGI (%). TGI (%)=[1−(average tumor volume of a certain administration group—average tumor volume at the day of grouping in the administration group)/(average tumor volume of negative control group—average tumor volume on the day of grouping in the negative control group)]×100%. The data of the administration group and the negative control group were obtained on the same day.
d. The mice's living status, including appearance signs, general behavioral activities, mental status, food consumption, respiratory status, fecal and urinary traits, injection site conditions and other toxic manifestations, was closely observed during the course of the experiment.
e. After the endpoint was reached, the mice were euthanized, and animal carcasses were frozen and stored in a freezer and transferred to qualified medical waste treatment organization for disposal.

EGFR WT (wild type EGFR) = EGFR WT (wild type EGFR) (Homo sapiens (Human), UniProt P00533); test: In vitro enzymatic TR-FRET (HTRF KinEASE-TK) kinase assay, EGFR WT; assay type: biochemical; details: kinase activity, TR-FRET; read-out: EGFR (WT) IC50
In short: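 IC50 derived from the 665/615 nm TR-FRET ratio after 1 h with streptavidin-XL665 and Cryptate-labelled TK antibody. Kinase reaction ran 40 min at room temperature with biotin-TK substrate and ATP, following 10 min compound–enzyme preincubation. Buffer: 5 mM MgCl2, 1 mM MnCl2, 1 mM DTT.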

[2] = tested on: Ba/F3_L858R/T790M/C797S cells; test: Ba/F3_L858R/T790M/C797S cell proliferation inhibition assay (CellTiter-Glo); assay type: cell-based; details: Mus musculus, BaF3; cell proliferation, 72 h, CellTiter-Glo; read-out: Ba/F3 (L858R/T790M/C797S) IC50
In short: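 Proliferation IC50 derived from CellTiter-Glo luminescence in Ba/F3 cells expressing triple-mutant EGFR (L858R/T790M/C797S). Cells (700/well) incubated 72 h with graded compound doses at 0.1% DMSO final, 37 °C, 5% CO2; reagent developed 30 min at room temperature in the dark.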

[3] = tested on: Ba/F3_Del19/T790M/C797S cells; test: Ba/F3_Del19/T790M/C797S cell proliferation inhibition assay (CellTiter-Glo); assay type: cell-based; details: Mus musculus, BaF3; cell proliferation, 72 h, CellTiter-Glo; read-out: Ba/F3 (Del19/T790M/C797S) IC50
In short: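 IC50 for growth inhibition came from CellTiter-Glo chemiluminescence after a 72 h, 37° C compound exposure. Ba/F3_Del19/T790M/C797S cells were plated at 700/well, and compound was dosed in gradient with 0.1% final DMSO.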

A431 cells (EGFR WT) = test: A431 cell proliferation inhibition assay (CellTiter-Glo); assay type: cell-based; details: Homo sapiens, A-431; cell proliferation, 72 h, CellTiter-Glo; read-out: A431 EGFR WT IC50
In short: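 CellTiter-Glo luminescence quantified growth after 72 h treatment with serially diluted compounds (final DMSO 0.1%), following a 24 h attachment period at 37° C, 5% CO2. Signal read after 30 min dark incubation at room temperature, with half-maximal growth inhibition reported as IC50.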

Sequence of EGFR L858R/T790M/C797S (P00533 25-1210 T790M/C797S/L858R): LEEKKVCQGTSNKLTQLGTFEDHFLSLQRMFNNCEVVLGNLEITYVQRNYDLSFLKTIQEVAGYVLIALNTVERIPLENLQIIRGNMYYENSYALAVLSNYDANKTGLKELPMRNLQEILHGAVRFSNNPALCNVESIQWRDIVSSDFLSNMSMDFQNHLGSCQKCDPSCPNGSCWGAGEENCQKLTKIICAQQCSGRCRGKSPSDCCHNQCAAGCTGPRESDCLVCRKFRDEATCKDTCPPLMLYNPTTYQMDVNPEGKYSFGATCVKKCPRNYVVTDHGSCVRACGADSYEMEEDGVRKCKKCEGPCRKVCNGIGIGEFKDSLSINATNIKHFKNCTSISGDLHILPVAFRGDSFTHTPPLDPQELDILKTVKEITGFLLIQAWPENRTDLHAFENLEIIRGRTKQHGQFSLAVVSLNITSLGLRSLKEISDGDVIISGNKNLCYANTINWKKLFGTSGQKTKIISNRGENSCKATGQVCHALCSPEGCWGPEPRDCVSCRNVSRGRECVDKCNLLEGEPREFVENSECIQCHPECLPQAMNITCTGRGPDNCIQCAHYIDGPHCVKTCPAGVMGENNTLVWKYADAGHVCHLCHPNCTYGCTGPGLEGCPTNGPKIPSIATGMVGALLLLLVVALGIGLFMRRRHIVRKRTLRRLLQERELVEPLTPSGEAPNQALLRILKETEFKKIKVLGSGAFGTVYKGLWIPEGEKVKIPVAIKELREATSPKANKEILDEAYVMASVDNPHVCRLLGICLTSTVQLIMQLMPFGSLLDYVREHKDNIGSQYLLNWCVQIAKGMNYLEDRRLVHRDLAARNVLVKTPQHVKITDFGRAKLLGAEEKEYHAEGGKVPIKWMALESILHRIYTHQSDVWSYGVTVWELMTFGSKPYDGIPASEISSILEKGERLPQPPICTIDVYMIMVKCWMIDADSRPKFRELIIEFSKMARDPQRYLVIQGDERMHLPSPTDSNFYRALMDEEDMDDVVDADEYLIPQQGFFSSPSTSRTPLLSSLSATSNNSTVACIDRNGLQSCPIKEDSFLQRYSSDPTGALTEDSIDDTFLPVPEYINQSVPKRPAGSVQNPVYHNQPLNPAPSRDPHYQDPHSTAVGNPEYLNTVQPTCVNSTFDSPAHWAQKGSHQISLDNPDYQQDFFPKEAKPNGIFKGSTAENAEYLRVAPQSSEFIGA
Sequence of EGFR WT (wild type EGFR) (P00533 25-1210): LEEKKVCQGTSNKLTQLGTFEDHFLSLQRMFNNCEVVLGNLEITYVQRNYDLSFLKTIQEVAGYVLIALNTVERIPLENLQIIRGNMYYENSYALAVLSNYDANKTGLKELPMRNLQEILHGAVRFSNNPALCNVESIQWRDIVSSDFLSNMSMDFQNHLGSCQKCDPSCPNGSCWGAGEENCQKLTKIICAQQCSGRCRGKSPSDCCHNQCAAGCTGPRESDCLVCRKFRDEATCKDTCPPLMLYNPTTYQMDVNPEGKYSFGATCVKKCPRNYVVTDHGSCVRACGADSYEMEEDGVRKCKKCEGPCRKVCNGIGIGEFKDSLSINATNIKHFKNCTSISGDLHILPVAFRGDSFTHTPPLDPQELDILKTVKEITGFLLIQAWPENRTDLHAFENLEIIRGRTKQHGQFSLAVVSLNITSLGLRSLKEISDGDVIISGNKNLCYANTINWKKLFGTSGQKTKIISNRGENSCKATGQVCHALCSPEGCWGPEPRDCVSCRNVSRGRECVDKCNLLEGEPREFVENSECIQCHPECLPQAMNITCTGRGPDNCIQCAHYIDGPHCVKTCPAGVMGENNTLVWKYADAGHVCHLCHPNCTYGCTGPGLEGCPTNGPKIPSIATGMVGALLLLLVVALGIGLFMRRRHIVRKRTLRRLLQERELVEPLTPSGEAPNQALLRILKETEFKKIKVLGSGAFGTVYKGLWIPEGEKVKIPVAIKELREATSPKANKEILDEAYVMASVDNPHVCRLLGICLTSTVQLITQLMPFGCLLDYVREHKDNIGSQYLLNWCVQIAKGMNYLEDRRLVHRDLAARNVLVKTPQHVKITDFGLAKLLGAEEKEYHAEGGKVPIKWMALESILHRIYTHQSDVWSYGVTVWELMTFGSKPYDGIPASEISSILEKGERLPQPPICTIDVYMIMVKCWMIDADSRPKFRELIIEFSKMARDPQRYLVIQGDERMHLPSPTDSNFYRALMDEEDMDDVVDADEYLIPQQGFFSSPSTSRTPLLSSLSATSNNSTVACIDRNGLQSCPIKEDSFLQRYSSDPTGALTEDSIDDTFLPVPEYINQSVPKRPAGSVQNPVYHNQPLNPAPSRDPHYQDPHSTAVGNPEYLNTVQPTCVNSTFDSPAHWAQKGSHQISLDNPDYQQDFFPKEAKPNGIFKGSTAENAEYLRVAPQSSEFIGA

COc1cc2c(cc1Nc1ncc(Br)c(Nc3ccc4nccnc4c3NS(C)(=O)=O)n1)-c1cnn(C)c1CCN2C(C)C [Compound 53]
IC50 (EGFR L858R/T790M/C797S): < 1 nM
Body weight change (%) ([1]; 15 mg/kg po): 0%
TGI (%) ([1]; 15 mg/kg po): 55.9%
Tumor volume (mm^3) ([1]; 15 mg/kg po): 565.8 ± 82.0 mm^3
Body weight change (%) ([1]; 60 mg/kg po): 6.8%
TGI (%) ([1]; 60 mg/kg po): 102.0%
Tumor volume (mm^3) ([1]; 60 mg/kg po, P < 0.01 vs G1): 117.0 ± 16.1** mm^3
Tolerability in mice (in words) [1]: well tolerated
IC50 (EGFR WT (wild type EGFR)): < 1 nM
IC50 [2]: < 10 nM
IC50 [3]: < 10 nM
IC50 (A431 cells (EGFR WT)): 100 to 1000 nM

COc1cc2c(cc1Nc1ncc(Br)c(Nc3ccccc3P(C)(C)=O)n1)-c1cnn(C)c1CCN2C(C)C [Compound 27]
IC50 (EGFR L858R/T790M/C797S): < 1 nM
Body weight change (%) ([1]; 15 mg/kg po): 7.0%
TGI (%) ([1]; 15 mg/kg po): 50.6%
Tumor volume (mm^3) ([1]; 15 mg/kg po): 617.6 ± 110.7 mm^3
Body weight change (%) ([1]; 35 mg/kg po): −1.7%
TGI (%) ([1]; 35 mg/kg po): 88.1%
Tumor volume (mm^3) ([1]; 35 mg/kg po, P < 0.01 vs G1): 253.0 ± 58.5** mm^3
Tolerability in mice (in words) [1]: well tolerated
IC50 (EGFR WT (wild type EGFR)): 1 to 10 nM
IC50 [2]: < 10 nM
IC50 [3]: < 10 nM
IC50 (A431 cells (EGFR WT)): 100 to 1000 nM

Reference: US20240034743A9, “TRICYCLIC COMPOUNDS AS EGFR INHIBITORS” (QILU PHARMACEUTICAL CO., LTD., priority 2020, published 2024)
